From US20250179047A1, “5-[7-(3,4-DIHYDRO-1H-ISOQUINOLINE-2-CARBONYL)-1,2,3,4 TETRAHYDROISOQUINOLIN-6-YL]-1H-PYRROLE-3-CARBOXAMIDE DERIVATIVES, PHARMACEUTICAL COMPOSITIONS CONTAINING THEM AND THEIR USES AS PRO-APOPTOTIC AGENTS” (LES LABORATOIRES SERVIER, priority 2022, published 2025) come the findings set out here.

The target in test [1] is BCL2 WT (Homo sapiens (Human), UniProt P10415). Put plainly: TR-FRET competitive binding assay, BCL2 WT. The settings on record: Ki determined from IC50, read-out: TR_FRET EKI_Bcl2 WT. The method in brief: (§1)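 Competitive TR-FRET displacement of fluorescein-PUMA peptide (2 or 20 nM) from 0.5 nM terbium-labelled N-terminal Halo-fusion BCL2 (1-207, wild type or mutant) or BCLXL (2-196), expressed in E. coli. Buffer 50 mM Hepes pH 7.5, 150 mM NaCl, 5% DMSO; 2 h at 23°C. 520/495 nm ratio fitted over 11 points for IC50, converted to Ki.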

Test [2] deals with BCL2 G101V (Homo sapiens, UniProt P10415, G101V). Nature of the test: TR-FRET competitive binding assay, BCL2 G101V. The conditions noted are these: BCL2 G101V; Ki determined from IC50; read-out: TR_FRET EKI_Bcl2 G101V. The essentials:
as §1

The subject of test [3] is BCL2 G101V. Put plainly: TR-FRET competitive binding assay, BCL2 G101V. More on the design: species or system human. The settings on record: ratio Ki BCL2 G101V / Ki BCL2 WT. The essentials: as §1
Test [4] addresses BCL2 D103Y (Homo sapiens, UniProt P10415, D103Y). Nature of the test: TR-FRET competitive binding assay, BCL2 D103Y. The settings on record: Ki determined from IC50, read-out: TR_FRET EKI_Bcl2 D103Y. The essentials: as §1
Test [5] addresses BCLXL WT (Homo sapiens (Human), UniProt Q07817). Nature of the test: TR-FRET competitive binding assay, BCLXL WT. The conditions noted are these: for Ki: BCLXL WT, Ki determined from IC50, read-out: TR_FRET EKI BclxL; for TR_FRET EKI BCLxL/WT selectivty ratio: ratio Ki BCLxL / Ki BCL2 WT. The method in brief:
as §1

Test [6] concerns KMS-12-PE Bcl-2 WT. Nature of the test: In vitro cytotoxicity CellTiter-Glo 48 h, KMS-12-PE Bcl-2 WT. The conditions noted are these: Homo sapiens, KMS-12-PE, C50 = concentration needed to reach 50% of the cellular viability. Type of test: cell-based. The essentials:
(§2)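 KMS-12-PE myeloma cells lentivirally transduced with Bcl-2 WT or G101V (TagRFP-sorted), exposed to compound 11-point dose-response for 48 h at 37 °C, 5% CO2. Viability read by CellTiter-Glo ATP luminescence; C50 is the concentration giving 50% cellular viability.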

Test [7] relates to KMS-12-PE Bcl-2 G101V. Put plainly: In vitro cytotoxicity CellTiter-Glo 48 h, KMS-12-PE Bcl-2 G101V. The settings on record: for Ratio (G101V/WT): C50 KMS-12-PE Bcl-2 G101V over C50 KMS-12-PE Bcl-2 WT; for IC50: Homo sapiens, KMS-12-PE, 48 h, CellTiter-Glo, C50 = concentration needed to reach 50% of the cellular viability. Type of test: cell-based. The method in brief: as §2

BCLXL WT, sequence (Q07817 other isoform, or with tags, fused parts or gaps): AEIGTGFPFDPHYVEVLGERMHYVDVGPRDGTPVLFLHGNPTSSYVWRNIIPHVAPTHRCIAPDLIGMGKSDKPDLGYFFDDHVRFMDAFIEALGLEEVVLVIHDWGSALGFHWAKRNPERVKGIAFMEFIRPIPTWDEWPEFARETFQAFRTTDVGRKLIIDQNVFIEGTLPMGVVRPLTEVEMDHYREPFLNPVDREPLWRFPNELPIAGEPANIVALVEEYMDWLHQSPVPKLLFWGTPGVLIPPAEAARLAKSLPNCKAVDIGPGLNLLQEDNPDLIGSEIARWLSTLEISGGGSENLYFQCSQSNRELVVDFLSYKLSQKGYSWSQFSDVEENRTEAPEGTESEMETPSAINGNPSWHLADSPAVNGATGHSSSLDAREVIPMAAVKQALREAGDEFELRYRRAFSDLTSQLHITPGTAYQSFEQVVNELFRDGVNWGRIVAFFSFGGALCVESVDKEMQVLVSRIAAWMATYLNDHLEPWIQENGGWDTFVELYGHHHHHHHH

As to `Cc1c(N(C(=O)c2cc(-c3cc4c(cc3C(=O)N3Cc5ccccc5C[C@H]3C)CN(C(=O)Cc3ccccc3)CC4)n(C)c2C)c2ccc(O)cc2F)cc(C#N)n1C` [Example 13, N-(5-cyano-1,2-dimethyl-1H-pyrrol-3-yl)-N-(2-fluoro-4-hydroxyphenyl)-1,2-dimethyl-5-{7-[(3R)-3-methyl-1,2,3,4-tetrahydroisoquinoline-2-carbonyl]-2-(2-phenylacetyl)-1,2,3,4-tetrahydroisoquinolin-6-yl}-1H-pyrrole-3-carboxamide], the Ki in test [1] is 1 nM; in test [2] it was 2 nM; in test [4] it was 2.35 nM; in test [5], 4.6 nM. The “TR_FRET EKI G101V/WT selectivty ratio” value in test [3] is on record as 2.0. For the same compound, the “TR_FRET EKI BCLxL/WT selectivty ratio” value in test [5] came to 4.6. In addition, the values for the IC50 in test [6] and in test [7] were 0.0131 µM and 0.0704 µM, respectively. In test [7], the “Ratio (G101V/WT)” value is listed as 5.37.

With `CCOC[C@@H]1Cc2ccccc2CN1C(=O)c1cc2c(cc1-c1cc(C(=O)N(c3ccc(O)cc3)c3cc(C#N)n(C)c3C)c(C)n1C)CCN(C(=O)Cc1ccc(OCCN3CCOCC3)cc1F)C2` [Example 169, N-(5-cyano-1,2-dimethyl-pyrrol-3-yl)-5-[7-[(3S)-3-(ethoxymethyl)-3,4-dihydro-1H-isoquinoline-2-carbonyl]-2-[2-[2-fluoro-4-(2-morpholinoethoxy)phenyl]acetyl]-3,4-dihydro-1H-isoquinolin-6-yl]-N-(4-hydroxyphenyl)-1,2-dimethyl-pyrrole-3-carboxamide], the Ki in test [1] stood at 0.09 nM; in test [2], 0.4 nM; in test [4], 0.36 nM; in test [5] it was 1.2 nM. Also, the “TR_FRET EKI G101V/WT selectivty ratio” value in test [3] was determined as 4.6. The “TR_FRET EKI BCLxL/WT selectivty ratio” value in test [5] is 12.8. Besides, the IC50 in test [6] amounted to 0.0049 µM; in test [7], 0.0248 µM. Further, in test [7], the “Ratio (G101V/WT)” value was found to be 5.082.

Take `Cc1c(N(C(=O)c2cc(-c3cc4c(cc3C(=O)N3Cc5ccccc5C[C@H]3CN3CCCC3)CN(C(=O)Cc3ccc(OCCN5CCOCC5)cc3F)CC4)n(C)c2C)c2ccc(O)cc2)cc(C#N)n1C` [Example 100, N-(5-cyano-1,2-dimethylpyrrol-3-yl)-5-[2-(2-{2-fluoro-4-[2-(morpholin-4-yl)ethoxy]phenyl}acetyl)-7-{[(3S)-3-(pyrrolidin-1-ylmethyl)-3,4-dihydro-1H-isoquinolin-2-yl]carbonyl}-3,4-dihydro-1H-isoquinolin-6-yl]-N-(4-hydroxyphenyl)-1,2-dimethylpyrrole-3-carboxamide]: the Ki came out at 0.02 nM in test [1], 0.2 nM in test [2], 0.06 nM in test [4] and 2.3 nM in test [5]. Further, the “TR_FRET EKI G101V/WT selectivty ratio” value in test [3] is on record as 8.9. Also, the “TR_FRET EKI BCLxL/WT selectivty ratio” value in test [5] amounted to 127.8. In addition, the IC50 in test [6] was found to be 0.0156 µM; in test [7], 0.066 µM. Besides, the “Ratio (G101V/WT)” value in test [7] is reported as 4.23.

In the case of `Cc1c(N(C(=O)c2cc(-c3cc4c(cc3C(=O)N3Cc5ccccc5C[C@H]3CN3CCC5(CC5)C3)CN(C(=O)Cc3ccc(OCCN5CCOCC5)cc3F)CC4)n(C)c2C)c2ccc(O)cc2)cc(C#N)n1C` [Example 176, 5-[7-[(3S)-3-(5-azaspiro[2.4]heptan-5-ylmethyl)-3,4-dihydro-1H-isoquinoline-2-carbonyl]-2-[2-[2-fluoro-4-(2-morpholinoethoxy)phenyl]acetyl]-3,4-dihydro-1H-isoquinolin-6-yl]-N-(5-cyano-1,2-dimethyl-pyrrol-3-yl)-N-(4-hydroxyphenyl)-1,2-dimethyl-pyrrole-3-carboxamide], the Ki in test [1] amounted to 0.03 nM; in test [2] it was 0.2 nM; in test [4] it was 0.16 nM; in test [5], 2.3 nM. Further, in test [3], the “TR_FRET EKI G101V/WT selectivty ratio” value is 5.8. Further, the “TR_FRET EKI BCLxL/WT selectivty ratio” value in test [5] worked out at 74.2. The IC50 amounted to 0.0093 µM in test [6] and 0.0596 µM in test [7]. For the same compound, the “Ratio (G101V/WT)” value in test [7] came out at 6.4155.

On to `Cc1c(N(C(=O)c2cc(-c3cc4c(cc3C(=O)N3Cc5ccccc5C[C@H]3CN3CCCCC3)CN(C(=O)Cc3ccc(CCN5CCC(F)(F)CC5)cc3)CC4)n(C)c2C)c2ccc(O)cc2)cc(C#N)n1C` [Example 131, N-(5-cyano-1,2-dimethylpyrrol-3-yl)-5-[2-(2-{4-[2-(4,4-difluoropiperidin-1-yl)ethyl]phenyl}acetyl)-7-{[(3S)-3-(piperidin-1-ylmethyl)-3,4-dihydro-1H-isoquinolin-2-yl]carbonyl}-3,4-dihydro-1H-isoquinolin-6-yl]-N-(4-hydroxyphenyl)-1,2-dimethylpyrrole-3-carboxamide], for which the Ki came to 0.23 nM in test [1], 1.5 nM in test [2], 0.53 nM in test [4] and 8.7 nM in test [5]. In addition, the “TR_FRET EKI G101V/WT selectivty ratio” value in test [3] turned out to be 6.5. The “TR_FRET EKI BCLxL/WT selectivty ratio” value in test [5] was 37.8. The IC50 came to 0.0361 µM in test [6] and 0.244 µM in test [7]. Moreover, the “Ratio (G101V/WT)” value in test [7] was 6.759.

In the case of `Cc1c(N(C(=O)c2cc(-c3cc4c(cc3C(=O)N3Cc5ccccc5C[C@H]3CN3CCCCC3)CN(C(=O)Cc3ccc(OCCN5CCOC[C@H]5C)cc3F)CC4)n(C)c2C)c2ccc(O)cc2)cc(C#N)n1C` [Example 166, N-(5-cyano-1,2-dimethylpyrrol-3-yl)-5-{2-[2-(2-fluoro-4-{2-[(3R)-3-methylmorpholin-4-yl]ethoxy}phenyl)acetyl]-7-{[(3S)-3-(piperidin-1-ylmethyl)-3,4-dihydro-1H-isoquinolin-2-yl]carbonyl}-3,4-dihydro-1H-isoquinolin-6-yl}-N-(4-hydroxyphenyl)-1,2-dimethylpyrrole-3-carboxamide], the Ki is 0.04 nM in test [1], 0.3 nM in test [2], 0.16 nM in test [4] and 2.7 nM in test [5]. Moreover, the “TR_FRET EKI G101V/WT selectivty ratio” value in test [3] is 5.8. For the same compound, in test [5], the “TR_FRET EKI BCLxL/WT selectivty ratio” value was 62.8. Besides, the IC50 in test [6] came to 0.0045 µM; in test [7], 0.0298 µM. For the same compound, in test [7], the “Ratio (G101V/WT)” value was 6.5639.

Take `Cc1c(N(C(=O)c2cc(-c3cc4c(cc3C(=O)N3Cc5ccccc5C[C@H]3CN3CCCCC3)CN(C(=O)Cc3ccc(OCCN(C)CCF)cc3)CC4)n(C)c2C)c2ccc(O)cc2)cc(C#N)n1C` [Example 116, N-(5-cyano-1,2-dimethyl-1H-pyrrol-3-yl)-5-{2-[2-(4-{2-[(2-fluoroethyl)(methyl)amino]ethoxy}phenyl)acetyl]-7-[(3S)-3-[(piperidin-1-yl)methyl]-1,2,3,4-tetrahydroisoquinoline-2-carbonyl]-1,2,3,4-tetrahydroisoquinolin-6-yl}-N-(4-hydroxyphenyl)-1,2-dimethyl-1H-pyrrole-3-carboxamide]: the Ki in test [1] was 0.05 nM; in test [2], 0.4 nM; in test [4] it was 0.19 nM; in test [5], 3.3 nM. In addition, in test [3], the “TR_FRET EKI G101V/WT selectivty ratio” value came out at 7.0. In test [5], the “TR_FRET EKI BCLxL/WT selectivty ratio” value worked out at 61.1. The IC50 in test [6] amounted to 0.0111 µM; in test [7], 0.0583 µM. Further, the “Ratio (G101V/WT)” value in test [7] was determined as 5.25.

Turning to `Cc1c(N(C(=O)c2cc(-c3cc4c(cc3C(=O)N3Cc5ccccc5C[C@H]3CN3CCCCC3)CN(C(=O)Cc3ccc(COCC5CCOCC5)cc3)CC4)n(C)c2C)c2ccc(O)cc2)cc(C#N)n1C` [Example 149, N-(5-cyano-1,2-dimethyl-1H-pyrrol-3-yl)-N-(4-hydroxyphenyl)-1,2-dimethyl-5-{2-[2-(4-{[(oxan-4-yl)methoxy]methyl}phenyl)acetyl]-7-[(3S)-3-[(piperidin-1-yl)methyl]-1,2,3,4-tetrahydroisoquinoline-2-carbonyl]-1,2,3,4-tetrahydroisoquinolin-6-yl}-1H-pyrrole-3-carboxamide], the Ki in test [1] came out at 0.1 nM; in test [2] it was 1.1 nM; in test [4], 0.23 nM; in test [5], 1.9 nM. Besides, the “TR_FRET EKI G101V/WT selectivty ratio” value in test [3] was 11.2. Besides, the “TR_FRET EKI BCLxL/WT selectivty ratio” value in test [5] is 19.4. For the same compound, the IC50 is 0.0239 µM in test [6] and 0.261 µM in test [7]. Moreover, the “Ratio (G101V/WT)” value in test [7] came out at 10.921.
